From US8093386B2, “Thioaryl substituted inhibitors of zinc proteases and their use” (Bracco Imaging S.p.A, priority 2006, dated 2012)

Key:
Format in all cases: biochemical
[1] = target: T1, MMP-1 (Homo sapiens, UniProt P03956); experiment: In vitro fluorometric inhibition assay of MMPs: MMP-1; details: Table I, cells marked (*)
T1 construct: purchased Calbiochem
T1 sequence (P03956 100-469): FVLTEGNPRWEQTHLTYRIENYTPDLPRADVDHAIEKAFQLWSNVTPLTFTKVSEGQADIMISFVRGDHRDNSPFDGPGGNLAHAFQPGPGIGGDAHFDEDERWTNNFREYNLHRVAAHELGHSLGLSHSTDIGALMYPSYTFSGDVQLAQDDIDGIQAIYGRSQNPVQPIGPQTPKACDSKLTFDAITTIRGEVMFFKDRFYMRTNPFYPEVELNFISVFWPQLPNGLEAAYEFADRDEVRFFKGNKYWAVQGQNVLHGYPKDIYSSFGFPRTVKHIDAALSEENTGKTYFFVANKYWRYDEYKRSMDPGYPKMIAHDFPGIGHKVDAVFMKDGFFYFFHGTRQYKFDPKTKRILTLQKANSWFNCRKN
Description: (§1) Analysis of the In Vitro Inhibition Activity of Zinc Metalloproteinases: In Vitro Inhibition of MMMPs
(§2) The human recombinant Progelatinase A (pro-MMP-2), B (pro-MMP-9), MMP-14cd and MMP-16cd, were provided by Prof. Gillian Murphy (Oncology Department, Cambridge University, UK); pro-MMP-1, pro-MMP-3, pro-MMP-7, pro-MMP-8, pro-MMP-13 and pro-MMP-14 were bought from Calbiochem. The proenzymes were activated immediately before the use with p-aminophenylmercuric acetate (APMA 2 mM for 1 h at 37° C. for MMP-1, MMP-2 and MMP-8, 1 mM for 1 h at 37° C. for MMP-9 and MMP-7, 1 mM for 30 min at 37° C. for MMP-13). Pro-MMP-14 and pro-MMP-3 were activated with trypsin 5 μg/ml for 15 min at 37° C. followed the soybean trypsin inhibitor (SBTI) 23 μg/ml for pro-MMP-14 and 62 μg/ml for pro-MMP-3. The catalytic domains of MMP-14 and MMP-16 were utilized without activation.
(§3) For the assay measurements, the stock solutions of the inhibitor (DMSO, 100 mM) were further diluted up to 7 different concentrations (0.01 nM-300 μM) for each MMP, in the buffer for the fluorometric assay (FAB: Tris 50 mM, pH=7.5, NaCl 150 mM, CaCl2 10 mM, Brij 35 0.05% and DMSO 1%). The solutions of activated enzyme (final concentrations 2.9 nM for MMP-2, 2.7 nM for MMP-9, 2.4 nM for MMP-7, 1 nM for MMP-14 and MMP-3, 1.5 nM for MMP-8 and MMP-16cd, 0.84 nM for MMP-14cd, 0.66 nM for MMP-13 and 0.20 nM for MMP-1) and of inhibitor were incubated in the assay buffer for 4 h at 25° C. After the addition of solution of fluorogenic substrate 200 μM Mca-Arg-Pro-Lys-Pro-Val-Glu-Nva-Trp-Arg-Lys(Dnp)-NH2 (Sigma) for MMP-3 and Mca-Lys-Pro-Leu-Gly-Leu-Dpa-Ala-Arg-NH2 (Bachem) for all the other enzymes in DMSO (final concentration 2 μM), the hydrolysis were monitored every 15 sec for 20 min, recording the increase in fluorescence (λex=325 nm, λem=400 nm) with a Molecular Device SpectraMax Gemini XS plates reader. The assays were made in triplicate in a total volume of 200 μl per well on 96 well-plates for microtitolation (Corning, black, NBS). The control wells were without inhibitor.
(§4) The inhibition activity of MMP was expressed in relative fluorescence unit (RFU). The percentage of inhibition was calculated using control reactions without inhibitor.
(§5) IC50 was determined using the formula: Vi/Vo=1/(1+[I]/IC50), wherein Vi is the initial rate of the substrate scission in presence of the inhibitor at the concentration [I] and Vo is the initial rate in the absence of inhibitor. The results were analyzed with the SoftMax Pro software and the GraFit software.

[2] = target: T2, MMP-2 (Homo sapiens, UniProt P08253); experiment: In vitro fluorometric inhibition assay of MMPs: MMP-2
T2 construct: gift of Prof; Gillian Murphy (Oncology Department, Cambridge University, UK)
T2 sequence (P08253 110-660): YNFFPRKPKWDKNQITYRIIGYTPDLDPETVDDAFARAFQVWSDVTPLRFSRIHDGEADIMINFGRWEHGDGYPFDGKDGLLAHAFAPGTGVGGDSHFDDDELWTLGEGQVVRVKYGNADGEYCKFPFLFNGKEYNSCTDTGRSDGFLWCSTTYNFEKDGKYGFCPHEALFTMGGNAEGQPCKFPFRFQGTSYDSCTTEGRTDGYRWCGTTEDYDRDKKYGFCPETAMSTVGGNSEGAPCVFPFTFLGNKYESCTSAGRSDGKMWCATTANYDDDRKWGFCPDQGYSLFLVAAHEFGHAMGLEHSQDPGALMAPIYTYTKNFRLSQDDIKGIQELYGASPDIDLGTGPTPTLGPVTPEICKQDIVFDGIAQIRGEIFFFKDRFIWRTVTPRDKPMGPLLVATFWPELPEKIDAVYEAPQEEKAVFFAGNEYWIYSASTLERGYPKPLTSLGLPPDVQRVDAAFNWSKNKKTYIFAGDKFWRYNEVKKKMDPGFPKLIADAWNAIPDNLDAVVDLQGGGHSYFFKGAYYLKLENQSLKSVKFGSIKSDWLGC
Description: as §1, §2, §3, §4, §5

[3] = target: T3, MMP-9 (Homo sapiens, UniProt P14780); experiment: In vitro fluorometric inhibition assay of MMPs: MMP-9
T3 construct: gift of Prof; Gillian Murphy (Oncology Department, Cambridge University, UK)
T3 sequence (P14780 107-707 limits assumed): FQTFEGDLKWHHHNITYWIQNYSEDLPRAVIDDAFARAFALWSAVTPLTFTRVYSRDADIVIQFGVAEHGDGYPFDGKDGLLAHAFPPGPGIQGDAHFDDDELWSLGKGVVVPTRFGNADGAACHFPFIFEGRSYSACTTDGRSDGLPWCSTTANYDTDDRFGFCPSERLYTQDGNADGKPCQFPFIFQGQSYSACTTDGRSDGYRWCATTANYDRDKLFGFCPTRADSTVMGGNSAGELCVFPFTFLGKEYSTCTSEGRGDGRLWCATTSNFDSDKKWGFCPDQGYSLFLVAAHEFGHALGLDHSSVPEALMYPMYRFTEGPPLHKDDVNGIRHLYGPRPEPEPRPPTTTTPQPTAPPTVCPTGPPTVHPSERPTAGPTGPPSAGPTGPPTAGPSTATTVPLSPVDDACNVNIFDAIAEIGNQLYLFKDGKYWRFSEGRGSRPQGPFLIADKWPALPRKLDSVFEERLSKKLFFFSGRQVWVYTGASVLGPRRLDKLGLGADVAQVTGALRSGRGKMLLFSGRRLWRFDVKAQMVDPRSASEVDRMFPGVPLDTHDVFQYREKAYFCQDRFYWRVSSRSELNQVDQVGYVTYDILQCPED
Description: as §1
as §2, with “The proenzymes were activated immediately before the use with p-aminophenylmercuric acetate (APMA 2 mM for 1 h at 37° C. for MMP-1, MMP-2 and MMP-8, 1 mM for 1 h at 37° C. for MMP-9 and MMP-7, 1 mM for 30 min at 37° C. for MMP-13).” left out
as §3, with “The solutions of activated enzyme (final concentrations 2.9 nM for MMP-2, 2.7 nM for MMP-9, 2.4 nM for MMP-7, 1 nM for MMP-14 and MMP-3, 1.5 nM for MMP-8 and MMP-16cd, 0.84 nM for MMP-14cd, 0.66 nM for MMP-13 and 0.20 nM for MMP-1) and of inhibitor were incubated in the assay buffer for 4 h at 25° C.” left out
as §4, §5

[4] = target: T4, TACE (ADAM17) (Homo sapiens, UniProt P78536); experiment: Inhibition of ADAMs: activity on TACE (ADAM17), fluorometric assay
T4 construct: purchased CalBiochem
T4 sequence (P78536 215-671 limits assumed): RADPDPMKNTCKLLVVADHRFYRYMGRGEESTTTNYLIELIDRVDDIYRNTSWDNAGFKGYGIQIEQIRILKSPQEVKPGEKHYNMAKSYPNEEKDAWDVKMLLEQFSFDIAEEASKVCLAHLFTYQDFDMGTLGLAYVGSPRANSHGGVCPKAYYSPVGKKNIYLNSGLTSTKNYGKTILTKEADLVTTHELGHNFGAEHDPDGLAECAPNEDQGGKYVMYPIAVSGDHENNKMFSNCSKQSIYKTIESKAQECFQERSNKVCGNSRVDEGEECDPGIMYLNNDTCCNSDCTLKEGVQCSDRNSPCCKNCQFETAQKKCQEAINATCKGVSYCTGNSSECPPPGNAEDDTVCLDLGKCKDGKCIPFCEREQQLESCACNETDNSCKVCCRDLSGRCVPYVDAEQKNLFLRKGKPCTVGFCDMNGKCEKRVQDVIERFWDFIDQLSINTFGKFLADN
Description: Inhibition of ADAMS: Activity on TACE (ADAM17) Method 1: (only TACE)
The human recombinant TACE, from CalBiochem, was dissolved in FAB buffer (Tris 50 mM, pH=7.5, NaCl 150 mM, CaCl2 10 mM, Brij 35 0.05% and DMSO 1%) at the concentration of 200 μg/mL (2.85 μM) as stock solution. For the assay measurements, the stock solutions of the inhibitor (DMSO, 100 mM) were further diluted up to seven different concentrations (0.01 nM-300 μM) in FAB buffer. A solution of the enzyme (final concentration 3 nM) and the solutions of the inhibitors at different concentrations were incubated in FAB for 20 minutes at 25° C. After the addition of a 200 μM solution of the substrate Mca-Lys-Pro-Leu-Gly-Leu-Dap(Dnp)-Ala-Arg-NH2 (Bachem) in DMSO (final concentration 2 μM), the hydrolysis was monitored for 20 min, recording the increase in fluorescence (λex=325 nm, λem=400 nm) using a Molecular Device SpectraMax Gemini XS plates reader. The assays were made in triplicate in a total volume of 200 μl per well, on 96 well microplates (Corning, black, NBS). The inhibition activity of TACE was expressed in relative fluorescent units (RFU). The percentage of inhibition was calculated based in respect to the blanks control without inhibitor. The IC50 was determined following the equation: Vi/Vo=1/(1+[I]/IC50), where Vi is the initial rate of the hydrolysis of the substrate in the presence of the inhibitor at the concentration [I] and Vo is the initial rate in the absence of inhibitor. The results were analysed using the software SoftMax Pro and GraFit.

Compound	IC50 [1]	IC50 ([2]; Table I, cells marked (*))	IC50 ([3]; Table I, cells marked (*))	IC50 ([4]; Table IV)	IC50 ([2]; Table IV)	IC50 ([2]; text b547)	IC50 ([4]; text b547)	IC50 ([3]; Table IV)
O=C(Cc1ccccc1Sc1ccc(-c2ccccc2)cc1)NO [Compound 21a]	171 ± 5 µM	41.1 ± 1.4 nM	1200 ± 200 nM	13.4 ± 1.93 µM				
COc1ccc(Sc2ccccc2CC(=O)NO)cc1 [Compound 21b, N-hydroxy-2-(2-(4-methoxyphenylthio)phenyl)acetamide]				10.2 ± 0.67 µM	6200 ± 300 nM			
CC#CCOc1ccc(Sc2ccccc2CC(=O)NO)cc1 [Compound 21c, 2-(2-(4-(but-2-iniloxy)phenylthio)phenyl)-N-hydroxyacetamide]						1450 ± 33 nM	0.462 ± 0.021 µM	
COc1ccc(-c2ccc(Sc3ccccc3CC(=O)NO)cc2)cc1 [Compound 24, N-hydroxy-2-(2-(4′-methoxybiphenyl-4-ylthio)phenyl)acetamide]		6.8 ± 0.53 nM	120 ± 17 nM	46.2 ± 5.34 µM	6.8 ± 0.53 nM			120 ± 17 nM
